In US8815221B2, “Composition used for skin whitening, plant extracted skin whitening composition and composition having a skin whitening effect” (Industrial Technology Research Institute, priority 2009, dated 2014):
Several values for one entry are separate records, joined by “and”; a condition that tells them apart may be missing. Equal entries are not always repeated.

Key:
Tyrosinase (Sigma T3824) = target: T1, Tyrosinase (Sigma T3824) (Agaricus bisporus, UniProt C7FF04); test: Tyrosinase inhibition test; format: biochemical; settings: L-Dopa substrate; for IC50: read-out: 50% tyrosinase inhibitory concentration (IC50) (converted); for Tyrosinase inhibiting rate (%) (100 μg/ml) / inhibition at 100 µg/mL: concentration of 100 μg/ml; for inhibition at 100 µg/mL: read-out: Tyrosinase inhibiting rate (%) (100 μg/ml); for inhibition at 125 µg/mL: concentration of 125 μg/ml, read-out: Tyrosinase inhibiting rate
T1 construct: purchased Sigma T3824
T1 sequence (C7FF04 1-392 limits assumed): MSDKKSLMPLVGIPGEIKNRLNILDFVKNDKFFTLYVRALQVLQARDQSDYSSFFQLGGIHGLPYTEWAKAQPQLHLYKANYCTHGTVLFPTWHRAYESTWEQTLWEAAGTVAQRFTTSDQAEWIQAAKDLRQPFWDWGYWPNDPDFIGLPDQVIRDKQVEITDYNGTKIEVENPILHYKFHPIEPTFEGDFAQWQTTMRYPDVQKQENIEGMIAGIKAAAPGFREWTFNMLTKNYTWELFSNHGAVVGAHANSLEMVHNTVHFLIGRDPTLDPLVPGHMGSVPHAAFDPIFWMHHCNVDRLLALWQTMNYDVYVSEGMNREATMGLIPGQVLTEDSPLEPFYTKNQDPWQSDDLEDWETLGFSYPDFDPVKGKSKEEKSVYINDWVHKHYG
Experimental: Tyrosinase Inhibition Test
1. A tyrosinase solution using Tyrosinase (Sigma T3824) was prepared, wherein after diluted with a 0.1 M phosphate buffer, a 0.1 U/μl tyrosinase solution was obtained.
2. A L-Dopa solution using L-Dopa (Sigma D9628) was prepared, wherein after diluted with a 0.1 M phosphate buffer, a 1 mM L-Dopa solution was obtained and then was placed a dark environment.
3. A test sample solution was prepared comprising 10 mg/ml of a sample solution diluted with 100% of DMSO. Then the test sample solution was further diluted for require concentrations using a 0.1 M phosphate buffer.
4. 50 μl/well of the prepared test sample solution mentioned above was added into the wells of a 96 well plate (note that the same diluted concentration of DMSO for the test sample solution was also added into the wells of a 96 well plate and used for the blank group) and then 90 μl/well of the prepared 0.1 U/μl tyrosinase solution mentioned above was added thereto (the dC control group was added the 0.1 M phosphate buffer but not the 0.1 U/μl tyrosinase solution). The 96 well plate was placed under a temperature of 37° C. and mixed at 450 rpm for 5 minutes and then placed in an ELISA reader (Molecular Devices M2). The wave length of the ELISA reader was set at 492 nm to determine absorbance values of the solutions in the 96 well plate, wherein two absorbance values were determined and the average value therefrom was used as a background value. Next, 60 μl/well of the prepared 1 mM L-Dopa solution mentioned above was added to the 96 well plate (the dD control group was added the 0.1 M phosphate buffer not the 1 mM L-Dopa solution) and then the 96 well plate was placed under a temperature of 37° C. in a dark environment and mixed at 450 rpm for 15 minutes and then placed in a ELISA reader (Molecular Devices M2). The wave length of the ELISA reader was set at 492 nm to determine absorbance values of the solutions in the 96 well plate, wherein two absorbance values were determined and the average value therefrom was used as a measurement value. After the background value was subtracted from the measurement value, the tyrosinase inhibiting rate of the sample was calculated. The formula for calculating the tyrosinase inhibiting rate of the sample is shown in the following: (A−A0)−(B−B0)−dC−dD/(A−A0)×100% […]
A: absorbance value of the blank group
B: absorbance value of the sample
A0: background value of the blank group
B0: background value of the sample dC: absorbance variation for the sample only reacted with the L-Dopa dD: absorbance variation for the sample only reacted with the tyrosinase

Mouse melanoma B16-F0 = test: Melanin inhibition test (melanin content analysis); format: cell-based; settings: concentration of 100 μg/ml, B16 cells, 48 hours, read-out: Melanin content inhibiting rate
Experimental: Mouse melanoma B16-F0 (ATCC CRL-6322, bought from Food Industry Research and Development Institute (FIRDI) (331 Shih-Pin Road, Hsinchu, 300 Taiwan R.O.C.)) was cultured in a medium (Dulbecco's MEM, DMEM) containing 10% fetal bovine serum and 1% penicillin-streptomycin under a temperature of 37° C., in a 5% CO2 incubator.
2. Melanin Content Analysis
Inhibition of B16 Cell Melanin by Extracts:
After a test sample was added to the B16 cells in the medium for 48 hours, the medium was removed. The B16 cells were washed twice with the PBS buffer and then 300 μl of a 1N NaOH which was preheated at a temperature of 70° C. was added to the B16 cells and the B16 cells were, placed in a 60° C. incubator for 60 minutes. Next, 200 μl of the 1N NaOH which had been added to the B16 cells mention above was added to a 96 well plate to determined the absorbance value at 405 nm. The formula for calculating the melanin content is shown in the following: Melanin content=(M/M0)×100%
M: absorbance value for B16 cells being treated with sample
M0: absorbance value for B16 cells not being treated with sample

Structure (SMILES) | IC50 (Tyrosinase (Sigma T3824)) | Tyrosinase inhibiting rate (%) (100 μg/ml) (Tyrosinase (Sigma T3824)) | Tyrosinase inhibiting rate (%) (100 μg/ml) (Tyrosinase (Sigma T3824); listed as compound 1) | inhibition at 100 µg/mL (Tyrosinase (Sigma T3824)) | inhibition at 100 µg/mL (Mouse melanoma B16-F0) | inhibition at 125 µg/mL (Tyrosinase (Sigma T3824)) | Tyrosinase inhibiting rate (%) (100 μg/ml) (Tyrosinase (Sigma T3824); listed as Structure (III))
O=C(/C=C/c1ccc(O)cc1)NCCCCN(CCCNC(=O)/C=C/c1ccc(O)cc1)C(=O)/C=C/c1ccc(O)cc1 [Compound 1] | < 63.4 µM and 62 µM | 61.2 ± 2.5% | about 61.2±2.5% | ~62% | ~19.9% | – | –
O=C(/C=C/c1ccccc1O)NCCCCN(CCCNC(=O)/C=C/c1ccccc1O)C(=O)/C=C/c1ccccc1O [Compound 3] | 752 µM | – | – | 10.4 ± 0.1% | – | 13.2 ± 1.1% | –
O=C(/C=C/c1ccc(O)c(O)c1)NCCCCN(CCCNC(=O)/C=C/c1ccc(O)c(O)c1)C(=O)/C=C/c1ccc(O)c(O)c1 [Compound 4] | 29.4 µM and < 30.1 µM | – | – | 62.2 ± 27.2% | – | 74.5 ± 16.1% | about 63%
COc1cc(/C=C/C(=O)NCCCCN(CCCNC(=O)/C=C/c2ccc(O)c(OC)c2)C(=O)/C=C/c2ccc(O)c(OC)c2)ccc1O [Compound 2] | 335 µM | – | – | 15 ± 1.7% | – | 29.2 ± 2% | –
